Data reported in patent US9650365B2 (UNIVERSITY OF CONNECTICUT, priority 2014, dated 2017).
Read-outs that look alike come from different tables or passages of the source. Blank lines part the entries; values can stand above or below the compound they belong to.

Assays:
HUVEC = HUVEC proliferation (MTS); assay type: cell-based, human
Source text: In vivo angiogenesis is dependent on endothelial cell proliferation; therefore, the inhibition of HUVEC proliferation is commonly utilized as an early stage in vitro model of anti-angiogenic activity. […] Under normal conditions, HUVECs plated and grown on Matrigel migrate towards each other, align, and form tubes that resemble in vivo capillary beds. This assay is generally considered a more robust model of angiogenesis as it requires several aspects of proper vessel formation, including adhesion, migration, and tube formation.
HUVEC Cell Viability and Proliferation. HUVEC cell viability and proliferation will be assessed by measuring cellular metabolic activity using MTT (viability) or MTS (proliferation) according to the manufacturer's instructions. HUVECs (3000 cells/well) are seeded in a 96-well plate and allowed to attach overnight. […] For viability, the final value is a corrected optical density (570 nm-690 nm). All viability and GI50 values are from a minimum of three separate experiments performed in triplicate.
HUVEC Cell Viability and Proliferation. HUVEC cell proliferation was assessed by measuring cellular metabolic activity using standard MTS/PMS protocols according to manufacturer's instructions. Briefly, HUVECs (3,000 cells/well) were seeded in a 96-well plate and allowed to attach overnight. Cells were treated with varying concentrations of drug as indicated and proliferation was assessed after 72 h with MTS.

[1] = tested on: Hh signaling (Gli1 mRNA) in ASZ cells; test: Down-regulation of endogenous Gli1 mRNA in ASZ cells; assay type: cell-based, murine; conditions: Mus musculus
Procedure: (§1) General Information. Protocols for general cell culture, qPCR and Hh inhibition in C3H10T1/2 and ASZ cells are as previously described.^28 Protocols for the initiation and growth of Math1-Cre-ER; Ptc^fl/fl medulloblastoma tumors, isolation and in vitro culture of MERP MB cells, as wells as the anti-proliferation and qPCR studies performed in these cells were as previously described.^a Sonic Hedgehog (C25II) recombinant mouse protein was purchased from Life Technologies. aData was analyzed using GraphPad Prism 5 and reported values represent mean±SEM for at least two separate experiments performed in triplicate.
(§2) In this well-studied model system for evaluating small molecule inhibition of Hh signaling, addition of an exogenous Hh agonist (recombinant Hh ligand or small molecule) results in a characteristic increase in Gli1 mRNA expression. Concomitant incubation with a pathway inhibitor reduces Gli1 expression. Analogues that reduced Gli1 mRNA levels below 20% in this assay were subsequently evaluated for their ability to reduce Gli1 mRNA expression levels in a concentration-dependent fashion in these cells and the Hh-dependent murine BCC cell line ASZ. In addition, several compounds were evaluated for their anti-proliferative effects in primary Hh-dependent medulloblastoma cells isolated from conditional patched knockout (Math1-Cre-ER; Ptc^fl/fl, MERP) mice. […] Finally, each of these analogues was evaluated for its ability to inhibit proliferation in human umbilical vein […] cells (HUVECs). In vivo angiogenesis is dependent on endothelial cell proliferation; therefore, the inhibition of HUVEC proliferation is commonly utilized as an early stage in vitro model of anti-angiogenic activity.

[2] = tested on: Hh signaling (Gli1 mRNA) in C3H10T1/2 cells; test: Down-regulation of endogenous Gli1 mRNA in Hh-dependent C3H10T1/2 cells; assay type: cell-based, mouse; conditions: for mrna remaining at 1 µM / IC50: Mus musculus; for mrna remaining at 1 µM: read-out: % Gli expression (1 μM)
Procedure: To determine whether the triazole functionality was required for inhibition of Hh signaling, the ability of Analogue 1 to down-regulate the well-characterized Hh pathway target gene Gli1 in the Hh-dependent C3H10T1/2 cell line was determined. In this cellular model, activation of the pathway with exogenous recombinant Hh ligand results in a characteristic up-regulation of Gli1 mRNA, while concomitant administration of a pathway inhibitor reduces Gli1 expression.
as §1, §2

[3] = 48 hr incubation, read-out: IC50 (μM) ASZ
[4] = Homo sapiens, HUVEC, 72 h, read-out: GI50 (μM) HUVEC
[5] = C3H 10T1/2, 1 μM, 24 hr incubation, relative to recombinant Hh ligand control (100%)
[6] = C3H 10T1/2, 24 hr incubation, read-out: IC50 (μM) C3H10T1/2
[7] = 48 h, read-out: IC50 (μM) ASZ, 48 hr incubation
[8] = Homo sapiens, HUVEC, 72 h, read-out: GI50 (μM) HUVEC, 72 h
[9] = C3H 10T1/2, 24 h, read-out: IC50 (μM) C3H10T1/2, 24 hr incubation
[10] = C3H 10T1/2, read-out: IC50 (μM) Gli1-C3Hs

Compound: 1-(sec-butyl)-4-(4-(4-(4-((2-(2,4-dichlorophenyl)-2-methyl-1,3-dioxolan-4-yl)methoxy)phenyl)piperazin-1-yl)phenyl)-1H-1,2,4-triazol-5(4H)-one [Compound 2a]
GI50 (HUVEC; read-out: GI50 HUVEC proliferation): 0.49 µM

IC50 [1, 3]: 0.45 ± 0.06 µM | IC50 [2, 6]: 0.42 ± 0.2 µM
Compound: CCC(C)n1ncn(-c2ccc(N3CCN(c4ccc(OCC5COC(Cn6cncn6)(c6ccccc6)O5)cc4)CC3)cc2)c1=O (centres unmarked) [Compound 3a, 4-(4-(4-(4-((2-((1H-1,2,4-triazol-1-yl)methyl)-2-phenyl-1,3-dioxolan-4-yl)methoxy)phenyl)piperazin-1-yl)phenyl)-1-(sec-butyl)-1H-1,2,4-triazol-5(4H)-one]
GI50 (HUVEC; [4]): 8.3 ± 0.7 µM | mrna remaining at 1 µM [2, 5]: 13.1 ± 1.2%

Compound: CCC(C)n1ncn(-c2ccc(N3CCN(c4ccc(OCC5COC(C)(Cn6cncn6)O5)cc4)CC3)cc2)c1=O (centres unmarked) [Compound 4a, 4-(4-(4-(4-((2-((1H-1,2,4-triazol-1-yl)methyl)-2-methyl-1,3-dioxolan-4-yl)methoxy)phenyl)piperazin-1-yl)phenyl)-2-(sec-butyl)-2,4-dihydro-3H-1,2,4-triazol-3-one]
GI50 (HUVEC; [4]): 18.4 ± 4.5 µM | mrna remaining at 1 µM [2, 5]: 61.4 ± 3.5%

Compound: CCC(C)n1ncn(-c2ccc(N3CCN(c4ccc(OCC5COC(C)(C)O5)cc4)CC3)cc2)c1=O (centres unmarked) [Compound 5a, 1-(sec-butyl)-4-(4-(4-(4-((2,2-dimethyl-1,3-dioxolan-4-yl)methoxy)phenyl)piperazin-1-yl)phenyl)-1H-1,2,4-triazol-5(4H)-one]
GI50 (HUVEC; [4]): > 100 µM | mrna remaining at 1 µM [2, 5]: 71.4 ± 5.5%

Compound: CC[C@H](C)n1ncn(-c2ccc(N3CCN(c4ccc(OCC5COC(Cn6cncn6)(c6ccc(Cl)cc6Cl)O5)cc4)CC3)cc2)c1=O (stereo partly drawn) [Compound 6a, 4-(4-(4-(4-((2-((1H-1,2,4-triazol-1-yl)methyl)-2-(2,4-dichlorophenyl)-1,3-dioxolan-4-yl)methoxy)phenyl)piperazin-1-yl)phenyl)-2-((S)-sec-butyl)-2,4-dihydro-3H-1,2,4-triazol-3-one]
IC50 [1, 7]: 0.14 ± 0.008 µM | GI50 (HUVEC; [8]): 2.5 ± 0.3 µM | mrna remaining at 1 µM ([2]; C3H 10T1/2, 24 h): 6.9 ± 3.1% | IC50 [2, 9]: 0.16 ± 0.04 µM

Compound: CC[C@@H](C)n1ncn(-c2ccc(N3CCN(c4ccc(OCC5COC(Cn6cncn6)(c6ccc(Cl)cc6Cl)O5)cc4)CC3)cc2)c1=O (stereo partly drawn) [Compound 7a, 4-(4-(4-(4-((2-((1H-1,2,4-triazol-1-yl)methyl)-2-(2,4-dichlorophenyl)-1,3-dioxolan-4-yl)methoxy)phenyl)piperazin-1-yl)phenyl)-2-((R)-sec-butyl)-2,4-dihydro-3H-1,2,4-triazol-3-one]
IC50 [1, 7]: 0.16 ± 0.07 µM | GI50 (HUVEC; [8]): 1.7 ± 0.4 µM | mrna remaining at 1 µM ([2]; C3H 10T1/2, 24 h): 3 ± 0.9% | IC50 [2, 9]: 0.14 ± 0.04 µM

Compound: CCCn1ncn(-c2ccc(N3CCN(c4ccc(OCC5COC(Cn6cncn6)(c6ccc(Cl)cc6Cl)O5)cc4)CC3)cc2)c1=O (centres unmarked) [Compound 8a, 4-(4-(4-(4-((2-((1H-1,2,4-triazol-1-yl)methyl)-2-(2,4-dichlorophenyl)-1,3-dioxolan-4-yl)methoxy)phenyl)piperazin-1-yl)phenyl)-1-propyl-1H-1,2,4-triazol-5(4H)-one]
GI50 (HUVEC; [8]): 4.7 ± 0.3 µM | mrna remaining at 1 µM ([2]; C3H 10T1/2, 24 h): 58.5 ± 6.4%

Compound: O=[N+]([O-])c1ccc(N2CCN(c3ccc(OCC4COC(Cn5cncn5)(c5ccc(Cl)cc5Cl)O4)cc3)CC2)cc1 (centres unmarked) [Compound 10a, 1-(4-((2-((1H-1,2,4-triazol-1-yl)methyl)-2-(2,4-dichlorophenyl)-1,3-dioxolan-4-yl)methoxy)phenyl)-4-(4-nitrophenyl)piperazine]
IC50 [1, 7]: 0.09 ± 0.01 µM | GI50 (HUVEC; [8]): 8.4 ± 0.7 µM | mrna remaining at 1 µM ([2]; C3H 10T1/2, 24 h): 1.5 ± 0.05% | IC50 [2, 9]: 0.13 ± 0.03 µM

IC50 [1, 3]: 2.5 ± 0.7 µM | IC50 [2, 6]: 1.1 ± 0.17 µM
Compound: CC[C@H](C)n1ncn(-c2ccc(N3CCN(c4ccc(OC[C@H]5CO[C@](C)(c6ccc(Cl)cc6Cl)O5)cc4)CC3)cc2)c1=O [Compound 14a, 2-((S)-sec-butyl)-4-(4-(4-(4-(((2S,4S)-2-(2,4-dichlorophenyl)-2-methyl-1,3-dioxolan-4-yl)methoxy)phenyl)piperazin-1-yl)phenyl)-2,4-dihydro-3H-1,2,4-triazol-3-one]
GI50 (HUVEC; [4]): 7.7 ± 4.4 µM

IC50 [1, 3]: 0.55 ± 0.07 µM | IC50 ([1]; read-out: IC50 down-regulation of Gli1 in ASZ cells): 0.55 µM | IC50 [2, 6]: > 10 µM | IC50 ([2]; C3H 10T1/2, read-out: inactive in the C3H10T1/2 MEFs at concentrations up to): > 10 µM
Compound: CC[C@H](C)n1ncn(-c2ccc(N3CCN(c4ccc(OC[C@H]5CO[C@@](C)(c6ccc(Cl)cc6Cl)O5)cc4)CC3)cc2)c1=O [Compound 15a, 2-((S)-sec-butyl)-4-(4-(4-(4-(((2R,4S)-2-(2,4-dichlorophenyl)-2-methyl-1,3-dioxolan-4-yl)methoxy)phenyl)piperazin-1-yl)phenyl)-2,4-dihydro-3H-1,2,4-triazol-3-one]
GI50 (HUVEC; [4]): 78.3 ± 17.3 µM

IC50 [1, 3]: 0.38 ± 0.07 µM | IC50 [2, 6]: 0.47 ± 0.001 µM
Compound: CC[C@H](C)n1ncn(-c2ccc(N3CCN(c4ccc(OC[C@@H]5CO[C@@](C)(c6ccc(Cl)cc6Cl)O5)cc4)CC3)cc2)c1=O [Compound 16a, 2-((S)-sec-butyl)-4-(4-(4-(4-(((2R,4R)-2-(2,4-dichlorophenyl)-2-methyl-1,3-dioxolan-4-yl)methoxy)phenyl)piperazin-1-yl)phenyl)-2,4-dihydro-3H-1,2,4-triazol-3-one]
GI50 (HUVEC; [4]): 18.3 ± 11.8 µM

IC50 [1, 3]: 2.8 ± 0.9 µM | IC50 [2, 6]: 6.6 ± 0.3 µM
Compound: CC[C@@H](C)n1ncn(-c2ccc(N3CCN(c4ccc(OC[C@H]5CO[C@@](C)(c6ccc(Cl)cc6Cl)O5)cc4)CC3)cc2)c1=O [Compound 19a, 2-((R)-sec-butyl)-4-(4-(4-(4-(((2R,4S)-2-(2,4-dichlorophenyl)-2-methyl-1,3-dioxolan-4-yl)methoxy)phenyl)piperazin-1-yl)phenyl)-2,4-dihydro-3H-1,2,4-triazol-3-one]
GI50 (HUVEC; [4]): 65 ± 11.5 µM

Compound: CCC(C)n1ncn(-c2ccc(N3CCN(c4ccc(O)cc4)CC3)cc2)c1=O (centres unmarked) [Compound 45a]
GI50 (HUVEC; 72 h, read-out: GI50 (μM) HUVEC): > 100 µM | % Gli expression (1 μM) ([2]; 1 μM, 24 hr incubation, relative to recombinant Hh ligand control (100%)): 45.7 ± 3.0%

IC50 ([1]; down-regulation of endogenous Gli1 mRNA, read-out: Hh pathway inhibition ASZ): 0.04 ± 0.01 µM | IC50 ([2]; C3H 10T1/2, down-regulation of endogenous Gli1 mRNA, read-out: Hh pathway inhibition C3H10T1/2): 0.082 ± 0.02 µM
Compound: CS(=O)(=O)c1ccc(C(=O)Nc2ccc(Cl)c(-c3ccccn3)c2)c(Cl)c1 [GDC-0449, reference compound]

IC50 ([1]; read-out: IC50 (μM) Gli1-ASZs): 0.15 ± 0.01 µM | IC50 [2, 10]: 0.45 ± 0.09 µM
Compound: C[C@H](O)Cn1ncn(-c2ccc(N3CCN(c4ccc(OCC5COC(Cn6cncn6)(c6ccc(Cl)cc6Cl)O5)cc4)CC3)cc2)c1=O (some centres unmarked) [Itz-psz #1 (S−)]

IC50 ([1]; read-out: IC50 (μM) Gli1-ASZs): 0.1 ± 0.01 µM | IC50 [2, 10]: 0.18 ± 0.02 µM
Compound: C[C@@H](O)Cn1ncn(-c2ccc(N3CCN(c4ccc(OCC5COC(Cn6cncn6)(c6ccc(Cl)cc6Cl)O5)cc4)CC3)cc2)c1=O (some centres unmarked) [Itz-psz #2 (R−)]

Compound: CC(=O)N1CCN(c2ccc(OCC3COC(Cn4ccnc4)(c4ccc(Cl)cc4Cl)O3)cc2)CC1 (centres unmarked) [ketoconazole, reference compound]
Hh inhibitory activity relative to ITZ ([2]; 1 μM): significant reduction in Hh inhibitory activity

Compound: CC(C)N1CCN(c2ccc(OCC3COC(Cn4cncn4)(c4ccc(Cl)cc4Cl)O3)cc2)CC1 (centres unmarked) [terconazole, reference compound]
Hh inhibitory activity relative to ITZ ([2]; 1 μM): significant reduction in Hh inhibitory activity
